Experimental data reported in US7285664B2, “Heterocyclic or benzenic derivatives of lipoic acid, their preparation and their use as medicaments” (S.C.R.A.S. Societe de Conseils de Recherches et …, priority 2000, dated 2007).
Structures can show the parent of a compound that is named as a salt.

Test system: HT-22 cells
Experiment: Effects on the oxidative stress induced by glutamate on cells in culture (HT-22), MTT viability
Type: cell-based
Settings: Mus musculus; protection of HT-22 cells from glutamate (5 mM); viability after 24 hours by MTT
Description: Study of the Effects on the Oxidative Stress Induced by Glutamate on Cells in Culture (HT-22):
The inhibitory activity of the products of the invention is determined by measuring their ability to protect the cells of a mouse hippocampal cell line (HT-22) from oxidative stress caused by glutamate. The biosynthesis of glutathione, an essential element in cell detoxification of free radicals, requires the active transport of cystine to inside the cell. The glutamate by opposing the penetration of cystine causes a reduction in the level of gluthatione which leads to the death of the cell by oxidative stress (Demerle-Pallardy, C. et al., J. Neurochem. (2000), 74, 2079-2086; Davis, J. B. and Maher, P., Brain Res., (1994) 652: 169-173; Murphy, T. H. et al., Neuron, (1989) 2: 1547-1558). The cells are cultured at 37° C. in a DMEM medium with 10% of fetal calf serum added to it. The tests are carried out in 96-well plates containing 5000 cells per well. The glutamate (5 mM) is added to the medium containing or not containing the products to be tested. The cell viability is tested after 24 hours by the MTT process (Hansen, M. B. et al., J. Immunol. Processes (1989) 119: 203-210). The ability of the compounds to protect the cells from the toxic action of the glutamate is estimated in EC50, calculated relative to the viability of cells which have not been subjected to the action of the glutamate considered as 100% viability.

Row | SMILES | EC50 [µM]
1 | NC(=Nc1ccc(N2CCN(C(=O)CCCCC3CCSS3)CC2)cc1)c1cccs1 (stereo not drawn) [Example 1, N′-(4-{4-[5-(1,2-dithiolan-3-yl)pentanoyl]-1-piperazinyl)phenyl)-2-thiophenecarboximidamide hydrochloride] | ≤ 4
2 | NC(=Nc1ccc(N2CCN(C(=O)CC3CCSS3)CC2)cc1)c1cccs1 (stereo not drawn) [Example 2, N′-(4-{4-[2-(1,2-dithiolan-3-yl)acetyl]-1-piperazinyl}phenyl)-2-thiophenecarboximidamide] | ≤ 4
3 | NC(=Nc1cccc(CN2CCN(C(=O)CC3CCSS3)CC2)c1)c1cccs1 (stereo not drawn) [Example 4, N′-[3-({4-[2-(1,2-dithiolan-3-yl)acetyl]-1-piperazinyl}methyl)phenyl]-2-thiophenecarboximidamide] | ≤ 4
4 | NC(=Nc1ccc(N2CCN(C(=O)NCCCCC3CCSS3)CC2)cc1)c1cccs1 (stereo not drawn) [Example 5, 4-(4-{[amino(2-thienyl)methylidene]amino}phenyl)-N-[4-(1,2-dithiolan-3-yl)butyl]-1-piperazinecarboxamide] | ≤ 4
5 | Cc1cc(N2CCN(C(=O)NCCCCC3CCSS3)CC2)ccc1N=C(N)c1cccs1 (stereo not drawn) [Example 7, 4-(4-{[amino(2-thienyl)methylidene]amino}-3-methylphenyl)-N-[4-(1,2-dithiolan-3-yl)butyl]-1-piperazinecarboxamide] | ≤ 4
6 | COc1cc(N=C(N)c2cccs2)ccc1N1CCN(C(=O)NCCCCC2CCSS2)CC1 (stereo not drawn) [Example 8, 4-(4-{[amino(2-thienyl)methylidene]amino}-2-methoxyphenyl)-N-[4-(1,2-dithiolan-3-yl)butyl]-1-piperazinecarboxamide] | ≤ 4
7 | COc1cc(N2CCN(C(=O)NCCCCC3CCSS3)CC2)ccc1N=C(N)c1cccs1 (stereo not drawn) [Example 9, 4-(4-{[amino(2-thienyl)methylidene]amino}-3-methoxyphenyl)-N-[4-(1,2-dithiolan-3-yl)butyl]-1-piperazinecarboxamide] | ≤ 4
8 | N#Cc1cc(N=C(N)c2cccs2)ccc1N1CCN(C(=O)NCCCCC2CCSS2)CC1 (stereo not drawn) [Example 10, 4-(4-{[amino(2-thienyl)methylidene]amino}-2-cyanophenyl)-N-[4-(1,2-dithiolan-3-yl)butyl]-1-piperazinecarboxamide] | ≤ 4
9 | NC(=Nc1cccc(CN2CCN(C(=O)NCCCCC3CCSS3)CC2)c1)c1cccs1 (stereo not drawn) [Example 11, 4-(3-{[amino(2-thienyl)methylidene]amino}benzyl)-N-[4-(1,2-dithiolan-3-yl)butyl]-1-piperazinecarboxamide] | ≤ 4
